These results are taken from PubChem BioAssay (NCI).

Test systems include ACHN renal; CAKI-1 renal; MALME-3M melanoma; MOLT-4 leukemia; HOP-92 NSCLC; RXF 393 renal; SNB-19 CNS; SR leukemia; KM12 colon; SK-OV-3 ovarian.
What all share (experiment): inhibition of tumour cell growth, NCI panel, 48 h

SMILES strings stand for the structures. “And” between values parts separate entries of the source, which are not always exact repeats. Equal values may be shown once.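 Tested at 5 concentrations; 48 h exposure; 96-well plates; endpoints linearly interpolated, else capped at highest concentration. GI50: concentration for 50% inhibition of growth. TGI: total growth inhibition.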

On to `CN(c1ccccc1)c1c(Cl)c(=O)oc2c1ccc1occc12`, for which the TGI in the test on ACHN renal, in the test with CAKI-1 renal, in the test with MALME-3M melanoma, with MOLT-4 leukemia, with HOP-92 NSCLC and in the test on RXF 393 renal was over 100 µM each time. Also, the TGI with SNB-19 CNS and in the test with SR leukemia was over 100 µM throughout.
On to `CC1(C)C(=O)C(C)(C)C1=S`, for which the TGI in the test on KM12 colon, with ACHN renal, in the test on CAKI-1 renal, in the test on MALME-3M melanoma, with MOLT-4 leukemia and with SNB-19 CNS was over 100 µM in each case. The TGI with SR leukemia and in the test with SK-OV-3 ovarian was over 100 µM throughout.
Consider `c1ccc2c(c1)cc1n2CC2CN=NC12` (configuration not stated), for which the TGI in the test on KM12 colon, with ACHN renal, in the test with CAKI-1 renal, in the test with MALME-3M melanoma, in the test on MOLT-4 leukemia and with RXF 393 renal was over 100 µM throughout. For the same compound, the TGI in the test with SNB-19 CNS, in the test with SR leukemia and with SK-OV-3 ovarian was over 100 µM each time.
As for `CCOc1ccc(NC(=O)CC2C(=O)Nc3ccccc3S2(=O)=O)cc1` (configuration not stated), the TGI in the test with KM12 colon is over 100 µM; with ACHN renal, over 100 µM; with MALME-3M melanoma, over 100 µM; in the test on MOLT-4 leukemia, over 100 µM; with HOP-92 NSCLC, 55.5 µM; in the test with RXF 393 renal it was over 100 µM. In addition, the TGI with SNB-19 CNS and in the test with SR leukemia was over 100 µM each time.
With `COC(=O)c1ccc(NC(=O)Oc2ccc(N(CCCl)CCCl)cc2)cc1`, the GI50 is 24.4 µM in the test with KM12 colon; 1.4 µM in the test with ACHN renal; 0.434 µM with CAKI-1 renal; 18.4 µM in the test on MALME-3M melanoma; 14.3 µM with HOP-92 NSCLC; 6.28 µM in the test with RXF 393 renal. For the same compound, the results for the GI50 with SNB-19 CNS, with SR leukemia and in the test with SK-OV-3 ovarian were 5.17 µM, 0.394 µM and 4.41 µM, respectively. Also, the TGI in the test on KM12 colon is over 100 µM; with ACHN renal it was 16.4 µM; with CAKI-1 renal, 7.36 µM; in the test with MALME-3M melanoma it was 71.1 µM; with HOP-92 NSCLC, 53.4 µM; in the test on RXF 393 renal it was 32.3 µM. In addition, the TGI is over 100 µM in the test with SNB-19 CNS, over 100 µM in the test on SR leukemia and 29.5 µM in the test on SK-OV-3 ovarian.
As for `CCOC(=O)COc1ccc2c(C)cc(=O)oc2c1`, the TGI in the test with KM12 colon, with ACHN renal, in the test with CAKI-1 renal, in the test on MALME-3M melanoma, in the test with MOLT-4 leukemia and in the test with HOP-92 NSCLC was over 100 µM in each case. For the same compound, the TGI in the test on RXF 393 renal, in the test with SNB-19 CNS and with SR leukemia was over 100 µM in each case.
Take `CC[C@H](C)[C@H](NC(=O)[C@H]1CCCCN1C)C(=O)N(C)[C@H](C[C@@H](OC(C)=O)c1nc(C(=O)N[C@@H](Cc2ccccc2)C[C@H](C)C(=O)O)cs1)C(C)C`: the GI50 in the test with KM12 colon was 0.000269 µM and 0.00165 µM; with ACHN renal, 0.00481 µM and 0.00165 µM; with CAKI-1 renal, 0.00197 µM; with MOLT-4 leukemia, 0.00376 µM and 0.00165 µM; in the test on HOP-92 NSCLC it was 7.24 µM; in the test on RXF 393 renal it was 0.00165 µM. Besides, the GI50 in the test with SNB-19 CNS was 0.000595 µM and 0.00165 µM; in the test with SR leukemia, 0.000305 µM and 0.00165 µM; in the test with SK-OV-3 ovarian, 0.000807 µM and 0.00165 µM. The TGI in the test with ACHN renal, in the test on MOLT-4 leukemia, in the test on HOP-92 NSCLC, with RXF 393 renal, in the test on SNB-19 CNS and with SR leukemia was over 16.5 µM each time.
Consider `COc1ccc(/C(C#N)=C2C=C/C(=N/O)c3ccccc3\2)cc1`, for which the GI50 was 0.175 µM in the test with KM12 colon; 0.318 µM with ACHN renal; 0.608 µM in the test with CAKI-1 renal; 0.357 µM in the test on MOLT-4 leukemia; 0.39 µM in the test on HOP-92 NSCLC; 0.437 µM with RXF 393 renal. Also, the results for the GI50 in the test with SNB-19 CNS, in the test with SR leukemia and in the test with SK-OV-3 ovarian were 2.8 µM, 0.133 µM and 0.301 µM, respectively. Besides, the TGI was 4.82 µM in the test with KM12 colon; 15.4 µM with ACHN renal; 26.1 µM in the test on CAKI-1 renal; 12.6 µM in the test on MOLT-4 leukemia; 6.96 µM in the test with HOP-92 NSCLC; 20.6 µM in the test with RXF 393 renal. Moreover, the TGI was 29.6 µM in the test with SNB-19 CNS, 5.06 µM in the test with SR leukemia and 3.4 µM in the test on SK-OV-3 ovarian.
Turning to `O=C1Cc2cc(C(=O)NC3C[C@H]4CC[C@@H](C3)N4S(=O)(=O)CC3CCN(CCCC(F)(F)F)CC3)c(Cl)cc2N1` (some centres not stated), the GI50 in the test with KM12 colon was over 100 µM; in the test on ACHN renal, over 100 µM; in the test with CAKI-1 renal, over 100 µM; with MALME-3M melanoma it was over 100 µM; in the test on MOLT-4 leukemia, over 100 µM; with HOP-92 NSCLC it was 67.7 µM. In addition, the GI50 was over 100 µM with SNB-19 CNS, 26.5 µM in the test on SR leukemia and over 100 µM in the test on SK-OV-3 ovarian. Also, the TGI with KM12 colon, in the test with ACHN renal, in the test on CAKI-1 renal, with MALME-3M melanoma, in the test with MOLT-4 leukemia and with HOP-92 NSCLC was over 100 µM throughout. The TGI in the test on SNB-19 CNS, in the test with SR leukemia and with SK-OV-3 ovarian was over 100 µM each time.
Consider `CCCCCCCCCCCC[n+]1ccc2ccccc2c1`, for which the GI50 in the test on KM12 colon was 0.397 µM; in the test on ACHN renal, 1.89 µM; with CAKI-1 renal, 1.65 µM; in the test with MOLT-4 leukemia, 0.681 µM; in the test on HOP-92 NSCLC, 0.3 µM; in the test on RXF 393 renal, 1.36 µM. For the same compound, the GI50 in the test on SNB-19 CNS is 0.995 µM; in the test on SR leukemia, 0.75 µM; in the test with SK-OV-3 ovarian, 1.43 µM. For the same compound, the TGI in the test with KM12 colon came to 1.51 µM; in the test with ACHN renal, 7.56 µM; in the test on CAKI-1 renal, 5.06 µM; with MOLT-4 leukemia, 2.65 µM; in the test on HOP-92 NSCLC, 1.79 µM; with RXF 393 renal, 2.88 µM. Besides, the TGI is 2.22 µM in the test with SNB-19 CNS, 2.57 µM in the test on SR leukemia and 3.1 µM in the test with SK-OV-3 ovarian.
`Cc1cc(Cl)nc(N(CCCNc2ccnc3cc(Cl)ccc23)Cc2ccco2)n1`: the GI50 is 2.79 µM in the test on KM12 colon; 3 µM in the test on ACHN renal; 2.21 µM with MALME-3M melanoma; 1.93 µM in the test with MOLT-4 leukemia; 0.779 µM in the test with HOP-92 NSCLC; 1.41 µM with RXF 393 renal. The GI50 in the test on SNB-19 CNS was 3.46 µM; in the test with SR leukemia, 1.65 µM; in the test with SK-OV-3 ovarian it was 2.45 µM. Besides, the TGI was determined as 11.5 µM in the test on KM12 colon; 12 µM with ACHN renal; 5.58 µM in the test with MALME-3M melanoma; 6.46 µM with MOLT-4 leukemia; 4.19 µM with HOP-92 NSCLC; 4.55 µM in the test on RXF 393 renal. Moreover, the TGI was 14.7 µM in the test on SNB-19 CNS, 4.49 µM in the test with SR leukemia and 8.22 µM in the test on SK-OV-3 ovarian.
